Data published in patent US6974804B2, “Esters” (Unilever Home & Personal Care USA, division of Conopco, Inc., priority 2000, dated 2005).

Assay: Gelling of water-immiscible cosmetic liquids in 96 well glass micro-titre plate
Assay type: physicochemical
Design: key: gel; g4: gel after overnight (18 hrs) storage at 4° C.; g22: gel after overnight (18 hrs) storage at 22° C.; sg: soft gel; sg22: soft gel after overnight (18 hrs) storage at 22° C.; solution; *: the test at 4° C. was not carried out
Details: for gelling of ISA: 150° C. 2.5 hours, cooled to ambient
Protocol: In this Example, various samples of esterified cellobiose prepared as in Example 1 or 2 above, were used to gel water-immiscible cosmetic liquids, in accordance with the procedure given below, in which a large number of gels can be prepared simultaneously.
The samples were tested in a 96 well (8×12 rows) glass micro-titre plate. […] About 0.01 or 0.02 g of each esterified cellobiose material was placed into 8 consecutive wells in a single row, so that each well contained approximately 5% or 10% of the cellobiose ester. The balance in each well comprised the cosmetic liquid by addition of approximately 0.2 g of the respective liquid to each cell. A glass lid was placed on top of the plate. The plate was carefully placed in a thermostatically controlled fan-assisted oven set at 150° C. for 2.5 hours. The plate was removed from the oven and allowed to cool naturally to ambient laboratory temperature. The contents of the wells were assessed at the end of the cooling period, by visual inspection and by poking the contents of each well with a micro-spatula. The plates were stored at […] for 18 hours and the contents inspected, and further stored for 18 hours at 4° C. and inspected for a third time. The results obtained in the tests are summarised in Table 5 below, in which the legend is as follows: […]

[1] = 5% cellobiose ester in Fluid AP
[2] = 5% cellobiose ester in Mineral oil
[3] = 5% cellobiose ester in Polydecene
[4] = 10% cellobiose ester in Fluid AP
[5] = 10% cellobiose ester in Mineral oil
[6] = 10% cellobiose ester in Polydecene

Compound | gelling of DC556 (5% cellobiose ester in DC556) | gelling of Fluid AP [1] | gelling of ISA (5% cellobiose ester in ISA) | gelling of Mineral oil [2] | gelling of Polydecene [3] | gelling of DC556 (10% cellobiose ester in DC556) | gelling of Fluid AP [4] | gelling of ISA (10% cellobiose ester in ISA) | gelling of Mineral oil [5] | gelling of Polydecene [6] | gelling of IPM (5% cellobiose ester in IPM) | gelling of IPM (10% cellobiose ester in IPM)
CCCCCCCCC(=O)OCC1OC(OC2C(COC(=O)CCCCCCCC)OC(OC(=O)CCCC)C(OC(=O)CCCCCCCC)C2OC(=O)CCCCCCCC)C(OC(=O)CCCCCCCC)C(OC(=O)CCCCCCCC)C1OC(=O)CCCCCCCC (mixture of isomers) [Ex 1.20] | g22 | g22 | sg22 | g22 | gel | g22 | gel | g22 | g22 | gel | – | –
CCCCCCCCC(=O)OCC1OC(OC2C(COC(=O)CCCCCCCC)OC(OC(=O)CCC)C(OC(=O)CCCCCCCC)C2OC(=O)CCCCCCCC)C(OC(=O)CCCCCCCC)C(OC(=O)CCCCCCCC)C1OC(=O)CCCCCCCC (mixture of isomers) [Ex 1.18] | gel | gel | sg22 | g22 | gel | gel | gel | gel | gel | gel | – | –
CCCCCCCCC(=O)OCC1OC(OC2C(COC(=O)CCCCCCCC)OC(OC(=O)CC)C(OC(=O)CCCCCCCC)C2OC(=O)CCCCCCCC)C(OC(=O)CCCCCCCC)C(OC(=O)CCCCCCCC)C1OC(=O)CCCCCCCC (mixture of isomers) [Ex 1.16] | gel | gel | gel | gel | gel | gel | gel | gel | gel | gel | – | –
CCCCCCCCC(=O)OCC1OC(OC2C(COC(=O)CCCCCCCC)OC(OC(=O)c3ccc(-c4ccccc4)cc3)C(OC(=O)CCCCCCCC)C2OC(=O)CCCCCCCC)C(OC(=O)CCCCCCCC)C(OC(=O)CCCCCCCC)C1OC(=O)CCCCCCCC (mixture of isomers) [Ex 1.15] | gel | gel | gel | gel | gel | gel | gel | gel | gel | gel | – | –
CCCCCCCCCC(=O)OCC1OC(OC2C(COC(=O)CCCCCCCCC)OC(OC(C)=O)C(OC(=O)CCCCCCCCC)C2OC(=O)CCCCCCCCC)C(OC(=O)CCCCCCCCC)C(OC(=O)CCCCCCCCC)C1OC(=O)CCCCCCCCC (mixture of isomers) [Ex 2.4] | gel | gel | gel | gel | gel | – | – | – | – | – | – | –
CCCCCCCCCC(=O)OCC1OC(OC2C(COC(=O)CCCCCCCCC)OC(OC(C)=O)C(OC(=O)CCCCCCCCC)C2OC(=O)CCCCCCCCC)C(OC(=O)CCCCCCCCC)C(OC(=O)CCCCCCCCC)C1OC(=O)CCCCCCCCC (mixture of isomers) [Ex 2.5] | gel | gel | gel | gel | gel | – | – | – | – | – | – | –
CCCCCCCCC(=O)OCC1OC(OC2C(COC(=O)CCCCCCCC)OC(OC(=O)C3CCCCC3)C(OC(=O)CCCCCCCC)C2OC(=O)CCCCCCCC)C(OC(=O)CCCCCCCC)C(OC(=O)CCCCCCCC)C1OC(=O)CCCCCCCC (mixture of isomers) [Ex 1.11] | g22 | gel | g22 | g22 | gel | gel | gel | g22 | g22 | gel | sol | sol
CCCCCCCCCC(=O)OCC1OC(OC2C(COC(=O)CCCCCCCCC)OC(OC(C)=O)C(OC(=O)CCCCCCCCC)C2OC(=O)CCCCCCCCC)C(OC(=O)CCCCCCCCC)C(OC(=O)CCCCCCCCC)C1OC(=O)CCCCCCCCC (mixture of isomers) [Ex 2.3] | gel | gel | gel | gel | gel | gel | gel | gel | gel | gel | – | –
CCCCCCCCCCCCCC(=O)OC1OC(COC(=O)CCCCCCCC)C(OC2OC(COC(=O)CCCCCCCC)C(OC(=O)CCCCCCCC)C(OC(=O)CCCCCCCC)C2OC(=O)CCCCCCCC)C(OC(=O)CCCCCCCC)C1OC(=O)CCCCCCCC (mixture of isomers) [Ex 1.24] | gel | gel | g22 | g22 | gel | gel | gel | gel | g22 | gel | – | –
CCCCCCCCCC(=O)OCC1OC(OC2C(COC(=O)CCCCCCCCC)OC(OC(=O)CCCCC)C(OC(=O)CCCCCCCCC)C2OC(=O)CCCCCCCCC)C(OC(=O)CCCCCCCCC)C(OC(=O)CCCCCCCCC)C1OC(=O)CCCCCCCCC (mixture of isomers) [Ex 2.11] | gel | gel | gel | gel | gel | gel | gel | gel | gel | gel | – | –
